Source: paper PMC5437114, “Exploring Pharmacological Mechanisms of Lavender (Lavandula angustifolia) Essential Oil on Central Nervous System Targets” (Frontiers in Pharmacology, 2017)

Target: T1, serotonin transporter (SERT) (Rattus norvegicus, UniProt P31652)
T1 construct: 225 μl of rat cortex suspension; from tissue; host or cells: rat (Sprague Dawley) brain cortex homogenate
Experiment: Serotonin transporter assay ([3H]-citalopram binding assay)
Settings: rat cortex

T1 sequence (P31652 whole entry): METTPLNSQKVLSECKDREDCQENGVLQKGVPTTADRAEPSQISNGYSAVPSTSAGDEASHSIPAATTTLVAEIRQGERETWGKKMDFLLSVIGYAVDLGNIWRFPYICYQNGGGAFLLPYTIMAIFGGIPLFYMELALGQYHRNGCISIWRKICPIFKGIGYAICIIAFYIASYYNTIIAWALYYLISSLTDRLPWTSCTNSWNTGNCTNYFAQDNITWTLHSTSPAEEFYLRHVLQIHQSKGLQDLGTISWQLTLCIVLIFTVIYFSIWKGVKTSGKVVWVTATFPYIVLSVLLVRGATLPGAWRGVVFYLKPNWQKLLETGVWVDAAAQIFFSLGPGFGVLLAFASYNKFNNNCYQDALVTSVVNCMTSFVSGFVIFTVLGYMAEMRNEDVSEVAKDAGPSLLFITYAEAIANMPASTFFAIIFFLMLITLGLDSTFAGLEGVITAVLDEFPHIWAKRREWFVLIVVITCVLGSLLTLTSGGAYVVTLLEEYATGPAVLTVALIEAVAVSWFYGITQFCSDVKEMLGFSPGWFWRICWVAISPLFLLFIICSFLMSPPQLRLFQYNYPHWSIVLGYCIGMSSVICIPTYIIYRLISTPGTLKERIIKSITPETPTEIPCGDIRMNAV

Compound: C=CC(C)(O)CCC=C(C)C (centres unmarked) [Linalool, linalool]
- Activity in the SERT assay (displacement of 3H-citalopram), in words: effect was also detected

Compound: C=CC(C)(CCC=C(C)C)OC(C)=O (centres unmarked) [Linalyl acetate, linalyl acetate]
- Activity in the SERT assay (displacement of 3H-citalopram), in words: did not show affinity
